Biological target: human NaV 1.7 (Homo sapiens, UniProt Q15858)
Assay: E-VIPR optical membrane potential assay with electrical stimulation
Type: cell-based
Details: sodium channel inhibition; read-out: Binned Activity Data (IC50)
Excerpt: Assays for Detecting and Measuring NaV Inhibition Properties of Compound E-VIPR Optical Membrane Potential Assay Method with Electrical Stimulation
Sodium channels are voltage-dependent proteins that can be activated by inducing membrane voltage changes by applying electric fields. The electrical stimulation instrument and methods of use are described in Ion Channel Assay Methods PCT/US01/21652, herein incorporated by reference and are referred to as E-VIPR. The instrument comprises a microtiter plate handler, an optical system for exciting the coumarin dye while simultaneously recording the coumarin and oxonol emissions, a waveform generator, a current- or voltage-controlled amplifier, and a device for inserting electrodes in well. Under integrated computer control, this instrument passes user-programmed electrical stimulus protocols to cells within the wells of the microtiter plate.
24 hours before the assay on E-VIPR, HEK cells expressing human NaV subtype, like NaV 1.7, are seeded in 384-well poly-lysine coated plates at 15,000-20,000 cells per well. Other subtypes are performed in an analogous mode in a cell line expressing the NaV of interest. HEK cells are grown in media (exact composition is specific to each cell type and NaV subtype) supplemented with 10% FBS (Fetal Bovine Serum, qualified; GibcoBRL #16140-071) and 1% Pen-Strep (Penicillin-Streptomycin; GibcoBRL #15140-122). Cells are grown in vented cap flasks, in 90% humidity and 10% CO2, to 100% confluence. They are usually split by trypsinization 1:10 or 1:20, depending on scheduling needs, and grown for 2-3 days before the next split.
Bath1 buffer. Glucose 10 mM (1.8 g/L), Magnesium Chloride (Anhydrous), 1 mM (0.095 g/L), Calcium Chloride, 2 mM (0.222 g/L), HEPES 10 mM (2.38 g/L), Potassium Chloride, 4.5 mM (0.335 g/L), Sodium Chloride 160 mM (9.35 g/L).
Hexyl Dye Solution: Bath1 Buffer+0.5% β-cyclodextrin (make this prior to use, Sigma #C4767), 8 μM CC2-DMPE+2.5 μM DiSBAC6(3). To make the solution Add volume of 10% Pluronic F127 stock equal to volumes of CC2-DMPE+DiSBAC6(3). The order of preparation is first mix Pluronic and CC2-DMPE, then add DiSBAC6(3) while vortexing, then add Bath1+β-Cyclodextrin.
1) Pre-spot compounds (in neat DMSO) into compound plates. Vehicle control (neat DMSO), the positive control (20 mM DMSO stock tetracaine, 125 μM final in assay) and test compounds are added to each well at 160× desired final concentration in neat DMSO. Final compound plate volume will be 80 μL (80-fold intermediate dilution from 1 μL DMSO spot; 160-fold final dilution after transfer to cell plate). Final DMSO concentration for all wells in assay is 0.625%.
2) Prepare Hexyl Dye Solution.
3) Prepare cell plates. On the day of the assay, medium is aspirated and cells are washed three times with 100 μL of Bath1 Solution, maintaining 25 μL residual volume in each well.
4) Dispense 25 μL per well of Hexyl Dye Solution into cell plates. Incubate for 20-35 minutes at room temp or ambient conditions.
5) Dispense 80 μL per well of Bath1 into compound plates. Acid Yellow-17 (1 mM) is added and Potassium Chloride can be altered from 4.5 to 20 mM depending on the NaV subtype and assay sensitivity.
6) Wash cell plates three times with 100 μL per well of Bath1, leaving 25 μL of residual volume. Then transfer 25 uL per well from Compound Plates to Cell Plates. Incubate for 20-35 minutes at room temp/ambient condition
7) Read Plate on E-VIPR. Use the current-controlled amplifier to deliver stimulation wave pulses for typically 9 seconds and a scan rate of 400 Hz. A pre-stimulus recording is performed for 0.5 seconds to obtain the un-stimulated intensities baseline. The stimulatory waveform is applied for 9 seconds followed by 0.5 seconds of post-stimulation recording to examine the relaxation to the resting state. […]

Chain of human NaV 1.7 (Q15858 whole entry): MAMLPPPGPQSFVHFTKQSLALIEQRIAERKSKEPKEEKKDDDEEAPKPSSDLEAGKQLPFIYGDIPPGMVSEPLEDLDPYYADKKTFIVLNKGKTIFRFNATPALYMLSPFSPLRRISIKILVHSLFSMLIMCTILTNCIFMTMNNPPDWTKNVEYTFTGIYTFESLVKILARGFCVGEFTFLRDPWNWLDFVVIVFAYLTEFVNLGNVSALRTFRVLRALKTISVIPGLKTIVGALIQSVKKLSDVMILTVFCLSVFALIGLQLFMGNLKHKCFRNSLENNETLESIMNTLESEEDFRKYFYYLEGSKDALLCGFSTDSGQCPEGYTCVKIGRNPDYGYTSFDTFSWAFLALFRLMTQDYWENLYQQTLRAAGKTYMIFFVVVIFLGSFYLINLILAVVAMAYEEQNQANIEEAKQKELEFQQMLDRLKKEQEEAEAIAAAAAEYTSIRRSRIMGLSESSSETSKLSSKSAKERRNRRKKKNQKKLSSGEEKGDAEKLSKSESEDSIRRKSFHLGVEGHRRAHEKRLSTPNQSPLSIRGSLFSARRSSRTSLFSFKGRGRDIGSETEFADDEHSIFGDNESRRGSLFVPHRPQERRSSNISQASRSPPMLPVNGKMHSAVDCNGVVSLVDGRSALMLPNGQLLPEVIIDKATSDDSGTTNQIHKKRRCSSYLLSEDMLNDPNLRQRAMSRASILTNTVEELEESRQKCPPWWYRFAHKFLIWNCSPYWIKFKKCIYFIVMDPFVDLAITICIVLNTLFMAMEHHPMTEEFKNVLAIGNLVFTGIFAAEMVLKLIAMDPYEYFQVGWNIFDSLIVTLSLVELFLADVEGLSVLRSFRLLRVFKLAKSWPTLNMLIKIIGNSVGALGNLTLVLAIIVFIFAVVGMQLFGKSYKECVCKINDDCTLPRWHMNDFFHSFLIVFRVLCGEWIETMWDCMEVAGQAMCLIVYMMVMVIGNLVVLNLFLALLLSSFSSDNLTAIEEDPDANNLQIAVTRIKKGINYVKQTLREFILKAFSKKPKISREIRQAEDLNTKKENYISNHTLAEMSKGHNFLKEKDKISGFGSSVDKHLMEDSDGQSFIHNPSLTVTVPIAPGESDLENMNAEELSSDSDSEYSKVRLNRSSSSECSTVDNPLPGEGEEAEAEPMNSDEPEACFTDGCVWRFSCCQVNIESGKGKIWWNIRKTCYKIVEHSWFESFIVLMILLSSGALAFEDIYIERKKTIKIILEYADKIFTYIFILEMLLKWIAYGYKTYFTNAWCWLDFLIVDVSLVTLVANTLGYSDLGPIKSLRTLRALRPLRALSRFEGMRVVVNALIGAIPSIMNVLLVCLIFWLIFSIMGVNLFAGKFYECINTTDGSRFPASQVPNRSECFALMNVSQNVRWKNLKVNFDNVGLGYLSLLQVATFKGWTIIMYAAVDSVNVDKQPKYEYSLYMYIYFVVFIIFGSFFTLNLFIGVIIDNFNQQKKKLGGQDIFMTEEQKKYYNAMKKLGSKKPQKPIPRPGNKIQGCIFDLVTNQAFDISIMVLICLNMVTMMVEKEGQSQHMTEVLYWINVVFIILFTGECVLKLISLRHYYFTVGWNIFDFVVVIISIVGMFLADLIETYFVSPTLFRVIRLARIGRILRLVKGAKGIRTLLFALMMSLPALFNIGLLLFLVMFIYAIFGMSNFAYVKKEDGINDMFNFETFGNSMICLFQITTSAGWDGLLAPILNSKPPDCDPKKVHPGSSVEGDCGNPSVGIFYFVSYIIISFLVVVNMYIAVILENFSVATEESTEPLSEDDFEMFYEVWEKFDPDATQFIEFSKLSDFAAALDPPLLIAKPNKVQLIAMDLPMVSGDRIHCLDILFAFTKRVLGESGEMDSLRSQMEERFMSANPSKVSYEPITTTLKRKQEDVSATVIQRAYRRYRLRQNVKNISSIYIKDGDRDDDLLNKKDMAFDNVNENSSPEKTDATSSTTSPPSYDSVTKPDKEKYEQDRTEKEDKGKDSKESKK

SMILES	IC50 [nM]
Cc1cc(OC(C)C)ccc1C(=O)N1CCC2(CC1)Oc1ccccc1-c1c2cnn1C [Compound 158]	≤ 2000
Cc1ccc(C(=O)N2CCC3(CC2)Oc2ccccc2-n2cccc23)cc1C [Compound 159]	≤ 2000
COc1ccc(C(=O)N2CCC3(CC2)Oc2ccccc2-n2cc(C)cc23)cc1C(F)(F)F [Compound 161]	≤ 2000
COc1ccc(C(=O)N2CCC3(CC2)Oc2ccccc2-n2c(C(F)(F)F)ccc23)c(OC)c1OC [Compound 164]	≤ 2000
COc1cc(C(=O)N2CCC3(CC2)Oc2cccnc2-n2cccc23)ccc1OCCC(C)C [Compound 165]	≤ 2000
COC(C)(C)c1ccc(C(=O)N2CCC3(CC2)Oc2cc(F)ccc2-n2cccc23)cc1C [Compound 166]	≤ 2000
COc1cc(C(=O)N2CCC3(CC2)Oc2cc(F)ccc2-n2cccc23)ccc1C(C)(C)O [Compound 168]	≤ 2000
COc1cc(C(=O)N2CCC3(CC2)Oc2ccccc2-c2c3cnn2C)ccc1OC(F)F [Compound 169]	2000 to 5000
O=C(c1ccc(O[C@@H]2CCOC2)c(C(F)(F)F)c1)N1CCC2(CC1)Oc1ccccc1-n1cccc12 [Compound 170]	≤ 2000
CC(=O)c1ccc2n1-c1ccccc1OC21CCN(C(=O)c2ccc(OC(C)C)c(C)c2)CC1 [Compound 171]	≤ 2000
COC[C@H](C)Oc1ccc(C(=O)N2CCC3(CC2)Oc2cc(Cl)ccc2-n2cccc23)cc1OC [Compound 172]	≤ 2000
CC(C)CCOc1ccc(C(=O)N2CCC3(CC2)Oc2ccccc2-c2c3cnn2C)cc1 [Compound 174]	≤ 2000
Cn1ncc2c1-c1ccccc1OC21CCN(C(=O)c2ccc3c(c2)CC(C)(C)O3)CC1 [Compound 182]	2000 to 5000
CC(C)Oc1ccc(C(=O)N2CCC3(CC2)Oc2ccccc2-c2c3cnn2C)c2ncccc12 [Compound 183]	≤ 2000
O=C(c1ccc(OCCO)cc1)N1CCC2(CC1)Oc1ccccc1-n1cccc12 [Compound 184]	≤ 2000
Cn1ncc2c1-c1ccccc1OC21CCN(C(=O)c2cccc3[nH]ccc23)CC1 [Compound 186]	≤ 2000
COc1ccc(C(=O)N2CCC3(CC2)Oc2ccccc2-c2c3cnn2C)c(OC)c1 [Compound 187]	≤ 2000
COc1ccc(OC)c(C(=O)N2CCC3(CC2)Oc2cc(Cl)ccc2-n2cccc23)c1 [Compound 189]	≤ 2000
CCCOc1ccc(C(=O)N2CCC3(CC2)Oc2ccccc2-c2c3cnn2C)cc1OC [Compound 190]	≤ 2000
COC(C)(C)c1ccc(C(=O)N2CCC3(CC2)Oc2cc(Cl)ccc2-n2cccc23)cc1C [Compound 193]	≤ 2000

SMILES	IC50 [nM]
Cn1ncc2c1-c1ccccc1OC21CCN(C(=O)c2cccc(F)c2OC(F)F)CC1 [Compound 194]	≤ 2000
CS(=O)(=O)c1ccc2n1-c1ccccc1OC21CCN(C(=O)c2ccccc2OC(F)F)CC1 [Compound 195]	≤ 2000
COc1cc(C(=O)N2CCC3(CC2)Oc2cc(F)ccc2-n2cccc23)ccc1OC1CCC(O)C1 (stereo not shown) [Compound 196]	≤ 2000
CCCCc1nc2cc(C(=O)N3CCC4(CC3)Oc3ccccc3-n3c(C(F)(F)F)ccc34)ccc2o1 [Compound 198]	≤ 2000
COc1cc(C(=O)N2CCC3(CC2)Oc2cc(Cl)ccc2-n2cccc23)ccc1OCC(C)(C)OC [Compound 199]	≤ 2000
COc1cc(C(=O)N2CCC3(CC2)Oc2ccccc2-n2cccc23)ccc1OC[C@@H](C)OC [Compound 203]	≤ 2000
COc1ccc(C(=O)N2CCC3(CC2)Oc2ccccc2-c2c3cnn2C)c(OC(C)C)c1 [Compound 205]	≤ 2000
COc1cc(C(=O)N2CCC3(CC2)Oc2ccccc2-n2c(C#N)ccc23)ccc1O [Compound 206]	≤ 2000
CC(C)(C)S(=O)(=O)c1ccsc1C(=O)N1CCC2(CC1)Oc1ccccc1-n1c(C(F)(F)F)ccc12 [Compound 207]	≤ 2000
O=C(c1ccc(S(=O)(=O)NC2CC2)cc1)N1CCC2(CC1)Oc1ccccc1-n1cccc12 [Compound 209]	≤ 2000
COCCOc1ccc(C(=O)N2CCC3(CC2)Oc2cc(Cl)ccc2-n2cccc23)cc1C [Compound 211]	≤ 2000
CCOc1ccccc1C(=O)N1CCC2(CC1)Oc1ccccc1-c1c2cnn1C [Compound 212]	≤ 2000
Cc1cc(C(=O)N2CCC3(CC2)Oc2ccc(Cl)cc2-c2c3cnn2C)ccc1OC(C)C [Compound 213]	≤ 2000
O=C(c1cc2occc2[nH]1)N1CCC2(CC1)Oc1ccccc1-n1c(C(F)(F)F)ccc12 [Compound 214]	> 5000
Cc1cc(C(=O)N2CCC3(CC2)Oc2cc(F)ccc2-n2cccc23)ccc1C#N [Compound 215]	≤ 2000
COc1cc(C(=O)N2CCC3(CC2)Oc2cc(Cl)ccc2-n2cccc23)ccc1C(C)(C)O [Compound 216]	≤ 2000
Cn1ncc2c1-c1ccccc1OC21CCN(C(=O)c2cn(C)c3ccccc23)CC1 [Compound 218]	≤ 2000
COCc1ccccc1C(=O)N1CCC2(CC1)Oc1ccccc1-c1c2cnn1C [Compound 219]	≤ 2000
Cc1cc(C)cc(C(=O)N2CCC3(CC2)Oc2cc(Cl)ccc2-n2cccc23)c1 [Compound 222]	≤ 2000
Cc1nc2cccc(C(=O)N3CCC4(CC3)Oc3ccccc3-c3c4cnn3C)c2o1 [Compound 224]	≤ 2000

Other lines, results leading:

IC50 [nM]	SMILES
≤ 2000	Cn1ncc2c1-c1ccccc1OC21CCN(C(=O)c2ccnc(N3CCCCC3)c2)CC1 [Compound 155]
≤ 2000	COc1cc(C(=O)N2CCC3(CC2)Oc2ccccc2-n2c(C#N)ccc23)ccc1OC(C)C [Compound 156]
> 5000	Cn1ncc2c1-c1ccccc1OC21CCN(C(=O)c2cccc3c2CCO3)CC1 [Compound 160]
≤ 2000	CCn1ncc2c1-c1ccccc1OC21CCN(C(=O)c2ccccc2OC(F)F)CC1 [Compound 167]
≤ 2000	Cn1cc2c(n1)-c1ccccc1OC21CCN(C(=O)c2ccc3ncsc3c2)CC1 [Compound 173]
≤ 2000	Cn1cc2c(n1)-c1cc(F)ccc1OC21CCN(C(=O)c2ccccc2OC(F)(F)F)CC1 [Compound 175]
≤ 2000	COc1cc(C(=O)N2CCC3(CC2)Oc2ccccc2-n2c(C(F)(F)F)ccc23)ccc1OCC(N)=O [Compound 176]
≤ 2000	CC(C)Oc1ccc(C(=O)N2CCC3(CC2)Oc2ccc(F)cc2-c2nn(C)cc23)cc1CO [Compound 180]
≤ 2000	COc1ccc(C(=O)N2CCC3(CC2)Oc2ccccc2-n2ccc(C)c23)cc1C(F)(F)F [Compound 181]
≤ 2000	Cc1cc(OC(C)C)ccc1C(=O)N1CCC2(CC1)Oc1ccccc1-c1nn(C)cc12 [Compound 188]
≤ 2000	COc1cc(C(=O)N2CCC3(CC2)Oc2ccccc2-n2cccc23)ccc1OCCOC(F)(F)F [Compound 191]
≤ 2000	N#Cc1ccc2n1-c1ccccc1OC21CCN(C(=O)c2ccc(OCCO)cc2)CC1 [Compound 197]
≤ 2000	CCc1ccc(C(=O)N2CCC3(CC2)Oc2cc(F)ccc2-n2cccc23)cc1OC [Compound 200]
≤ 2000	Cc1cc(C(=O)N2CCC3(CC2)Oc2ccccc2-c2c3cnn2C)c(C)cc1OC(C)C [Compound 202]
≤ 2000	CC(C)Oc1ccc(C(=O)N2CCC3(CC2)Oc2cc(C#N)ccc2-n2cccc23)cc1 [Compound 208]
2000 to 5000	Cc1ccccc1C(=O)N1CCC2(CC1)Oc1ccccc1-c1c2cnn1C [Compound 217]
≤ 2000	CC(C)(C)c1ccc(C(=O)N2CCC3(CC2)Oc2cc(Cl)ccc2-n2cccc23)cc1C#N [Compound 220]
≤ 2000	COCCOc1ccc(C(=O)N2CCC3(CC2)Oc2ccccc2-n2c(C(F)(F)F)ccc23)cc1OC [Compound 223]

— US9365588B2, “Benzoxazines as modulators of ion channels” (Vertex Pharmaceuticals Incorporated, priority 2011, dated 2016)
